Reference: publication PMC5053573, “Structure-Based Design of Tetrahydroisoquinoline-7-carboxamides as Selective Discoidin Domain Receptor 1 (DDR1) Inhibitors” (Journal of Medicinal Chemistry, 2016)

Experiments:
Experiment in all cases: biochemical
Conditions in all cases: read-out: %Ctrl @ 1000nM
KIT(A829P) = KIT(A829P) (Homo sapiens, UniProt P10721, A829P)
FLT3(ITD) = FLT3(ITD) (Homo sapiens, UniProt P36888, ITD)
[1] = target: RPS6KA5(Kin.Dom.1-N-terminal) (Homo sapiens, UniProt O75582)
EPHA8 = EPHA8 (Homo sapiens, UniProt P29322)
CSNK1G2 = CSNK1G2 (Homo sapiens, UniProt P78368)
AMPK-alpha1 = target: T1, AMPK-alpha1 (Homo sapiens, UniProt Q13131)
T1 construct: gene PRKAA1

IRAK1 = IRAK1 (Homo sapiens, UniProt P51617)
PRKCD = PRKCD (Homo sapiens, UniProt Q05655)
CSNK2A2 = CSNK2A2 (Homo sapiens, UniProt P19784)
NEK3 = NEK3 (Homo sapiens, UniProt P51956)
DMPK2 = target: T2, DMPK2 (Homo sapiens, UniProt Q6DT37)
T2 construct: gene CDC42BPG

PIKFYVE = PIKFYVE (Homo sapiens, UniProt Q9Y2I7)
CSNK1A1L = CSNK1A1L (Homo sapiens, UniProt Q8N752)
[2] = target: ABL1(E255K)-phosphorylated (Homo sapiens, UniProt P00519, E255K)
MST4 = target: T3, MST4 (Homo sapiens, UniProt Q9P289)
T3 construct: gene STK26

TAOK3 = TAOK3 (Homo sapiens, UniProt Q9H2K8)
GRK4 = GRK4 (Homo sapiens, UniProt P32298)
PYK2 = target: T4, PYK2 (Homo sapiens, UniProt Q14289)
T4 construct: gene PTK2B

TIE2 = target: T5, TIE2 (Homo sapiens, UniProt Q02763)
T5 construct: gene TEK

PCTK1 = target: T6, PCTK1 (Homo sapiens, UniProt Q00536)
T6 construct: gene CDK16

S6K1 = target: T7, S6K1 (Homo sapiens, UniProt P23443)
T7 construct: gene RPS6KB1

DMPK = DMPK (Homo sapiens, UniProt Q09013)
PHKG1 = PHKG1 (Homo sapiens, UniProt Q16816)
ERK4 = target: T8, ERK4 (Homo sapiens, UniProt P31152)
T8 construct: gene MAPK4

[3] = target: RPS6KA4(Kin.Dom.2-C-terminal) (Homo sapiens, UniProt O75676)
CDK2 = CDK2 (Homo sapiens, UniProt P24941)
KIT-autoinhibited = KIT-autoinhibited (Homo sapiens, UniProt P10721)
PIP5K1A = PIP5K1A (Homo sapiens, UniProt Q99755)
IKK-beta = target: T9, IKK-beta (Homo sapiens, UniProt O14920)
T9 construct: gene IKBKB

NEK2 = NEK2 (Homo sapiens, UniProt P51955)
PAK6 = PAK6 (Homo sapiens, UniProt Q9NQU5)
AMPK-alpha2 = target: T10, AMPK-alpha2 (Homo sapiens, UniProt P54646)
T10 construct: gene PRKAA2

[4] = target: ABL1(F317L)-nonphosphorylated (Homo sapiens, UniProt P00519, F317L)
PIK3CA(H1047L) = PIK3CA(H1047L) (Homo sapiens, UniProt P42336, H1047L)
Chain of PIK3CA(H1047L) (P42336 whole entry H1047L): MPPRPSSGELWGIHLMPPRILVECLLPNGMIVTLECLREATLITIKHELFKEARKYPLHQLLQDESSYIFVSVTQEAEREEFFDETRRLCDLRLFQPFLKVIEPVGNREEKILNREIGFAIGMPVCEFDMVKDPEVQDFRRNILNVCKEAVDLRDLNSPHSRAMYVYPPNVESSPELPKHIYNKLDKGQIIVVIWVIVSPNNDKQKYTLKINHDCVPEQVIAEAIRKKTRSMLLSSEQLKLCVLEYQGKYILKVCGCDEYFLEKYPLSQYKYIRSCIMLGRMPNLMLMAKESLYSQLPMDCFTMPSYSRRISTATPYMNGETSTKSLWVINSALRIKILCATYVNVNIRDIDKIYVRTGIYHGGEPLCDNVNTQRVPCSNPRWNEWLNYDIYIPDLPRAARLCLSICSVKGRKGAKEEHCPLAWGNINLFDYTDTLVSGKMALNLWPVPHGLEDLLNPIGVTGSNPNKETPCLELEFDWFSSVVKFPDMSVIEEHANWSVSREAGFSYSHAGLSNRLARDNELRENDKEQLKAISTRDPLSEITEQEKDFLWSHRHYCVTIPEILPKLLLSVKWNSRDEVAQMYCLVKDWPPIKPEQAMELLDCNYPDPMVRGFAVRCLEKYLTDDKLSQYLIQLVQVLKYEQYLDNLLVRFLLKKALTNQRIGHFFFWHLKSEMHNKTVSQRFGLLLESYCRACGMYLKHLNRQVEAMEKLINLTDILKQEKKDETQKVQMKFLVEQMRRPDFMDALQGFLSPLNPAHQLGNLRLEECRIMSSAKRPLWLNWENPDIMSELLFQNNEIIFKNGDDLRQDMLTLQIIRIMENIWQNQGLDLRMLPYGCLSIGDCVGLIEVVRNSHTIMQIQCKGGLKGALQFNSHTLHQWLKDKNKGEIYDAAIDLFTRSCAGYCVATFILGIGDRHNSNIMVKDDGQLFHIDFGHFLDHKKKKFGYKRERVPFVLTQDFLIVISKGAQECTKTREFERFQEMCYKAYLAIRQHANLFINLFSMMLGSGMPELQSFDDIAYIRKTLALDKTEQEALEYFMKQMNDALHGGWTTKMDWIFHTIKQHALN

T6 sequence (Q00536 whole entry): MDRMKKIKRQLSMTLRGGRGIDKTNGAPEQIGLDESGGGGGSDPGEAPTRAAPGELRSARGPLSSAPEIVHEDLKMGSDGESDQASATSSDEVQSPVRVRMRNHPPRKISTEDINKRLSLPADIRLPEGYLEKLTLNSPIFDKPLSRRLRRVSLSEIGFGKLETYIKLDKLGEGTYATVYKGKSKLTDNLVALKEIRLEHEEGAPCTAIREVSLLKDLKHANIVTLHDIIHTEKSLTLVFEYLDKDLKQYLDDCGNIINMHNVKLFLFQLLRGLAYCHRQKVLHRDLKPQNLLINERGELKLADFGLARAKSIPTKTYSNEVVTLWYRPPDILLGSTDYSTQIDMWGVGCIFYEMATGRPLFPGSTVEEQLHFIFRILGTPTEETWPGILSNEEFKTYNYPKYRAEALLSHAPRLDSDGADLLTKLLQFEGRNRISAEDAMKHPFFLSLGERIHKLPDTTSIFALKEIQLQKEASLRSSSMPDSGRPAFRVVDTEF
T4 sequence (Q14289 whole entry): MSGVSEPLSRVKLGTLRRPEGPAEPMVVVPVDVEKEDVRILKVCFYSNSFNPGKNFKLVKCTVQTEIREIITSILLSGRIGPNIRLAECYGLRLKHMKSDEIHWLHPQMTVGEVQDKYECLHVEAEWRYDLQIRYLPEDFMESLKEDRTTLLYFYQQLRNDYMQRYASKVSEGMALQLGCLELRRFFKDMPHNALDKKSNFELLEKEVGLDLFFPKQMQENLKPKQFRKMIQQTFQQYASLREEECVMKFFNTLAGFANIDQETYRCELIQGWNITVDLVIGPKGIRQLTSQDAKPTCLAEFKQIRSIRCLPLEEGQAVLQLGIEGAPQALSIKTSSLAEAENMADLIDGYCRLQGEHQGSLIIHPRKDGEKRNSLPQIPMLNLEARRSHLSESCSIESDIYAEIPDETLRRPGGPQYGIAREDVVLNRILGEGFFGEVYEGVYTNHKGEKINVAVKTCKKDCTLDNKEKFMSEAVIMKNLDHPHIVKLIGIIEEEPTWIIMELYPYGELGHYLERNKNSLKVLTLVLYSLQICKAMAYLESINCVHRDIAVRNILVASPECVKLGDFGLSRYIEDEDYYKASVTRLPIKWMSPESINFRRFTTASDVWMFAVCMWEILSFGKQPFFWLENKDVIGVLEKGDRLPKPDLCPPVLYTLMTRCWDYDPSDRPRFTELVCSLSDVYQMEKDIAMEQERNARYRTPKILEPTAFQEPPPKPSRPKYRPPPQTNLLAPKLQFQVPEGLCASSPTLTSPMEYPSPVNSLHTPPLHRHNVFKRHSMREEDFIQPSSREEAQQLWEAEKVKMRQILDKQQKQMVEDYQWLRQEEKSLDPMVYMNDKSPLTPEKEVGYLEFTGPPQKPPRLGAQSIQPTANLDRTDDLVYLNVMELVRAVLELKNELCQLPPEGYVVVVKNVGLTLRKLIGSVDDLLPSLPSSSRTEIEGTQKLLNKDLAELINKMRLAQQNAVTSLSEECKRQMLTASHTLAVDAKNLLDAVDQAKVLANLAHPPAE
T8 sequence (P31152 whole entry): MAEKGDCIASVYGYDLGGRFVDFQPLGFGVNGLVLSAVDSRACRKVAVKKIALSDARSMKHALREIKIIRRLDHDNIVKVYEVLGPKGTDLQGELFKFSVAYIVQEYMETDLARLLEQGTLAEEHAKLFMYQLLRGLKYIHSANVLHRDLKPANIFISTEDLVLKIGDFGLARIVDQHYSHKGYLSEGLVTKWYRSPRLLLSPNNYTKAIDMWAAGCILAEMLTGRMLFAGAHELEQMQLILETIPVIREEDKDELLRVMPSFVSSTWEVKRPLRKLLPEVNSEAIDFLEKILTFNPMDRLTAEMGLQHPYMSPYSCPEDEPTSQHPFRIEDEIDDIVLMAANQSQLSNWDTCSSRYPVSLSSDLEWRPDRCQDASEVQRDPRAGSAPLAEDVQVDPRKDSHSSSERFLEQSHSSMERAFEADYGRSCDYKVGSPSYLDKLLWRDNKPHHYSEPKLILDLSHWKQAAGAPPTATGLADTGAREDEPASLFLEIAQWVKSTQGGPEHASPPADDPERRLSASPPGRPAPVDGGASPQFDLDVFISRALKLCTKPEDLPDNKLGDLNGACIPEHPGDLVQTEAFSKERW
Chain of ABL1(F317L)-nonphosphorylated (P00519 whole entry F317L): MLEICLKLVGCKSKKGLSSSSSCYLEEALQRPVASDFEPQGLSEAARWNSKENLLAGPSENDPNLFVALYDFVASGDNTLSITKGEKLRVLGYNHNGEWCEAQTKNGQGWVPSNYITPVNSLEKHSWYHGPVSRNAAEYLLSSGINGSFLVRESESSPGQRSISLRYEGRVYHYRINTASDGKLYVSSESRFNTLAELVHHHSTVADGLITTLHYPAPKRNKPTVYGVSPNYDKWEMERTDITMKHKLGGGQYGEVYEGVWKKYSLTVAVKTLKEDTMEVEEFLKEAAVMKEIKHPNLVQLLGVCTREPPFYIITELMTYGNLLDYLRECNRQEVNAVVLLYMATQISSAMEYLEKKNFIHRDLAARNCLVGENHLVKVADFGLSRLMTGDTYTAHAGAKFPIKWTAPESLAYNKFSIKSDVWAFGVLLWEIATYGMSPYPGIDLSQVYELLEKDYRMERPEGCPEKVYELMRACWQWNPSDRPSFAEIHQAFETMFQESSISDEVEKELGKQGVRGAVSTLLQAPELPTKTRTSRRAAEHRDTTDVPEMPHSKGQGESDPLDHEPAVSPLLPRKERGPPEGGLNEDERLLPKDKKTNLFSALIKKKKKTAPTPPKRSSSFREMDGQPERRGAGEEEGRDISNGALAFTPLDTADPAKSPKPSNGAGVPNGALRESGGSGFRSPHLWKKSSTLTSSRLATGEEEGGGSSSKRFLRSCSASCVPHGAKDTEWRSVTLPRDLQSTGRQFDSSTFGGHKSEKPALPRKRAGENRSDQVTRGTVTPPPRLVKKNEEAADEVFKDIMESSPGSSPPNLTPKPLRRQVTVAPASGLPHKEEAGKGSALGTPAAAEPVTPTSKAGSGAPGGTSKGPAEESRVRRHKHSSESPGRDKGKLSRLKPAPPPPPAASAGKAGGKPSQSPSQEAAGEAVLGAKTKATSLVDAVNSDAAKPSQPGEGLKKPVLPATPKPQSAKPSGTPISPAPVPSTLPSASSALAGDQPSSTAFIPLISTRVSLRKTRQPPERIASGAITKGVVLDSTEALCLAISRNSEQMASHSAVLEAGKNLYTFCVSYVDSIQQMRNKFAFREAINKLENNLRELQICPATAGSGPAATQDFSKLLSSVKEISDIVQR
Chain of DMPK (Q09013 whole entry): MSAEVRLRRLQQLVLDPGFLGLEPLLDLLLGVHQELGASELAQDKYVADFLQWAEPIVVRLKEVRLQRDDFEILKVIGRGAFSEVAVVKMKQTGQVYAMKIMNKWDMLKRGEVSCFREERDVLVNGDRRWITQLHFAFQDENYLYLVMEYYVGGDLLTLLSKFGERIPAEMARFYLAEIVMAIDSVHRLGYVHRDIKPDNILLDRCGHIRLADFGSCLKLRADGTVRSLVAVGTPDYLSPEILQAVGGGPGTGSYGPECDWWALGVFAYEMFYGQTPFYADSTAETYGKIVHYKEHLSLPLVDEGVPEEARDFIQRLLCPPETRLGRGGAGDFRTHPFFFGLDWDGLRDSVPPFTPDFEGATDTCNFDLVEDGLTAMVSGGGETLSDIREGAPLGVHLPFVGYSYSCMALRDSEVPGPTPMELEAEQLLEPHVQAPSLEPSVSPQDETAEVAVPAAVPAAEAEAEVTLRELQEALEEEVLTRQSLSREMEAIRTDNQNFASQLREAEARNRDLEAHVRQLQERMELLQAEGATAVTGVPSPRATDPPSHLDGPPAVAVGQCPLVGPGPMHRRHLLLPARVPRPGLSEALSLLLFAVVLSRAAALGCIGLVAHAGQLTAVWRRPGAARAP
Chain of ABL1(E255K)-phosphorylated (P00519 whole entry E255K): as the sequence (P00519 whole entry F317L) above, with E255K, L317F counted along it

## Cc1cn(-c2cc(NC(=O)c3ccc4c(c3)CN(c3cncnc3)C[C@@H]4C)cc(C(F)(F)F)c2)cn1 [Compound 6j]
KIT(A829P)
  remaining activity at 1 µM: 100%
FLT3(ITD)
  remaining activity at 1 µM: 71%
[1]
  remaining activity at 1 µM: 97%
EPHA8
  remaining activity at 1 µM: 21%
CSNK1G2
  remaining activity at 1 µM: 92%
AMPK-alpha1
  remaining activity at 1 µM: 83%
IRAK1
  remaining activity at 1 µM: 100%
PRKCD
  remaining activity at 1 µM: 94%
CSNK2A2
  remaining activity at 1 µM: 93%
NEK3
  remaining activity at 1 µM: 94%
DMPK2
  remaining activity at 1 µM: 100%
PIKFYVE
  remaining activity at 1 µM: 100%
CSNK1A1L
  remaining activity at 1 µM: 69%
[2]
  remaining activity at 1 µM: 56%
MST4
  remaining activity at 1 µM: 100%
TAOK3
  remaining activity at 1 µM: 100%
GRK4
  remaining activity at 1 µM: 100%
PYK2
  remaining activity at 1 µM: 93%
TIE2
  remaining activity at 1 µM: 64%
PCTK1
  remaining activity at 1 µM: 100%
S6K1
  remaining activity at 1 µM: 100%
DMPK
  remaining activity at 1 µM: 100%
PHKG1
  remaining activity at 1 µM: 95%
ERK4
  remaining activity at 1 µM: 93%
[3]
  remaining activity at 1 µM: 100%
CDK2
  remaining activity at 1 µM: 86%
KIT-autoinhibited
  remaining activity at 1 µM: 100%
PIP5K1A
  remaining activity at 1 µM: 100%
IKK-beta
  remaining activity at 1 µM: 100%
NEK2
  remaining activity at 1 µM: 95%
PAK6
  remaining activity at 1 µM: 85%
AMPK-alpha2
  remaining activity at 1 µM: 100%
[4]
  remaining activity at 1 µM: 38%
PIK3CA(H1047L)
  remaining activity at 1 µM: 100%
